Biological target: Phosphatidylinositol 4,5-bisphosphate 3-kinase catalytic subunit alpha isoform (Homo sapiens, UniProt P42336)
Test: p110alpha (alpha) PI3K Binding Assay: PI3K Binding assays are intended for determining the biochemical potency of small molecule PI3K inhibitors. The PI3K lipid kinase reaction is performed in the presence of PIP2:3PS lipid substrate (Promega #V1792) and ATP. Following the termination if the kinase reaction, turnover of ATP to ADP by the phosphorylation of the lipid substrate is detected using the Promega ADP-Glo¿ (Promega #V1792) assay.

Phosphatidylinositol 4,5-bisphosphate 3-kinase catalytic subunit alpha isoform, sequence (P42336 whole entry, canonical isoform): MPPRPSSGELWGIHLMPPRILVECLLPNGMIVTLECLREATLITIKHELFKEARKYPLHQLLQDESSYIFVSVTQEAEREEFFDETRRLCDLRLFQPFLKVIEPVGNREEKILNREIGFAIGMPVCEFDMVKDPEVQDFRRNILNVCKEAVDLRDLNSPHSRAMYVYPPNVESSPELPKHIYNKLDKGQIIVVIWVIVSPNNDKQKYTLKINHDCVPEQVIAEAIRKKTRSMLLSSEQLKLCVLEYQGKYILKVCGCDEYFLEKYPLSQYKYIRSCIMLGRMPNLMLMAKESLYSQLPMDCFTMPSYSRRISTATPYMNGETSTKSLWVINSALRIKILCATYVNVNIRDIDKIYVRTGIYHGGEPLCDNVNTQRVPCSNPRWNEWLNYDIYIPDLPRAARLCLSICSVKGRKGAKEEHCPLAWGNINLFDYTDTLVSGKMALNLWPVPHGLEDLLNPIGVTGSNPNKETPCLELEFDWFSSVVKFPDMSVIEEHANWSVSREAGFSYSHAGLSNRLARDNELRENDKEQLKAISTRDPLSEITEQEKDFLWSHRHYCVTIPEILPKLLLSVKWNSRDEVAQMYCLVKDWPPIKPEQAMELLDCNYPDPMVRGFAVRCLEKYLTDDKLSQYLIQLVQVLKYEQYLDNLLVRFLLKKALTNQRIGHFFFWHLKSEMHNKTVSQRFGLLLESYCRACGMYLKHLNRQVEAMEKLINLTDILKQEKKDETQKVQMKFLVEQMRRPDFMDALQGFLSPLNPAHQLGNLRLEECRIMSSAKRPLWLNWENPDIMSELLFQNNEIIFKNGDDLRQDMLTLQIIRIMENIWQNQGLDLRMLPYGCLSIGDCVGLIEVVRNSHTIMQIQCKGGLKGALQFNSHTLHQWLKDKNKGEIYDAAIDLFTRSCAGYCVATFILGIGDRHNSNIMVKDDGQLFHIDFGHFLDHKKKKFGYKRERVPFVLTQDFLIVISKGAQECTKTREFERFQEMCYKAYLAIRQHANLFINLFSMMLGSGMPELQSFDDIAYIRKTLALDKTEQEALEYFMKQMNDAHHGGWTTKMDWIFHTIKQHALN

Row | SMILES | Ki
1 | NC(=O)[C@@H](Nc1cc2c3c(c1)nc(-c1ccc4c(n1)OCCO4)n3CCCO2)C1CC1 | 0.0241 µM
2 | Cn1ncnc1-c1nc2cc(N[C@H](C(N)=O)C3CC3)cc3c2n1CCCO3 | 0.396 µM
3 | Cn1cc(-c2nc3cc(N[C@H](C(N)=O)C4CC4)cc4c3n2CCCO4)cn1 | 0.359 µM
4 | CC[C@H](Oc1cc2c3c(c1)nc(-c1ccc4oc(N)nc4c1)n3CCCO2)C(N)=O (single isomer, unassigned) | 0.00027 µM
5 | CC[C@@H](Oc1cc2c3c(c1)nc(-c1ccc4oc(N)nc4c1)n3CCCO2)C(N)=O (single isomer, unassigned) | 0.0008 µM

From ChEMBL document CHEMBL5725591, “Tricyclic PI3K inhibitor compounds and methods of use” (2018)
